The results in this text go back to US20250236616A1, “IMMUNOMODULATING AZALIDES” (Zoetis Services LLC, priority 2021, published 2025).

One assay deals with IL-6. The assay can be described thus: Whole bovine blood assay, LPS-induced IL-6. It counts as cell-based. The conditions noted are these: fresh whole bovine blood, LPS stimulant; top drug concentration 250 μM.
A word on the IC50: it is the point on the concentration scale where inhibition reaches its midpoint. Read a high IC50 as weaker potency. In turn, `CC[C@H]1OC(=O)[C@H](C)[C@@H](O)[C@H](C)[C@@H](O[C@H]2O[C@@H](C)C[C@@H](N(C)S(=O)(=O)Nc3ccccc3)[C@@H]2Oc2ccc(F)cc2)[C@](C)(O)C[C@@H](C)CN[C@H](C)[C@@H](O)[C@]1(C)O` [Example A-37] displayed an IC50 of 46 µM.
`CC[C@H]1OC(=O)[C@H](C)[C@@H](O[C@H]2C[C@@](C)(OC)[C@](O)(CNC3CCCCC3)[C@H](C)O2)[C@H](C)[C@@H](O[C@@H]2O[C@H](C)C[C@H](N(C)S(=O)(=O)Nc3ccc(C(F)(F)F)cc3)[C@H]2O)[C@](C)(O)C[C@@H](C)CN[C@H](C)[C@@H](O)[C@]1(C)O` [Example B-69] returned an IC50 of 16 µM.
Same read-out and setting: the value for `CCCNC[C@]1(O)[C@H](C)O[C@@H](O[C@H]2[C@H](C)[C@@H](O[C@@H]3O[C@H](C)C[C@H](N(C)S(=O)(=O)c4nccn4C)[C@H]3Oc3ccc(F)cc3C)[C@](C)(O)C[C@@H](C)CN[C@H](C)[C@@H](O)[C@](C)(O)[C@@H](CC)OC(=O)[C@@H]2C)C[C@@]1(C)OC` [Example B-121] was 5 µM; that for `CC[C@H]1OC(=O)[C@H](C)[C@@H](O[C@H]2C[C@@](C)(OC)[C@](O)(CNCCS(=O)(=O)c3ccccc3)[C@H](C)O2)[C@H](C)[C@@H](O[C@@H]2O[C@H](C)C[C@H](N(C)S(=O)(=O)Nc3ccc(C(F)(F)F)cc3)[C@H]2O)[C@](C)(O)C[C@@H](C)CN[C@H](C)[C@@H](O)[C@]1(C)O` [Example B-128] was 23 µM; that for `CC[C@H]1OC(=O)[C@H](C)[C@@H](O[C@H]2C[C@@](C)(OC)[C@](O)(CN3CCCCC3)[C@H](C)O2)[C@H](C)[C@@H](O[C@@H]2O[C@H](C)C[C@H](N(CC(C)C)S(=O)(=O)c3ccc(OC)cc3)[C@H]2O)[C@](C)(O)C[C@@H](C)CN[C@H](C)[C@@H](O)[C@]1(C)O` [Example C-43] was 4 µM.
For the compound `CC[C@H]1OC(=O)[C@H](C)[C@@H](O[C@H]2C[C@@](C)(OC)[C@](O)(CN3CCCCC3)[C@H](C)O2)[C@H](C)[C@@H](O[C@@H]2O[C@H](C)C[C@H](N(C)S(=O)(=O)c3ccc(S(F)(F)(F)(F)F)cc3)[C@H]2O)[C@](C)(O)C[C@@H](C)CN[C@H](C)[C@@H](O)[C@]1(C)O` [Example C-47], inhibition was half-maximal at 4 µM (IC50).

A further assay concerns TNF-α. Briefly: Whole bovine blood assay, LPS-induced TNF-α. The class given is cell-based. The conditions noted are these: fresh whole bovine blood, LPS stimulant; top drug concentration 250 μM. Here is the method:
Whole Blood Assay-Fresh whole bovine blood samples were collected into heparinized vacutainer tubes. Assay plates were prepared with 25 μL of drug diluted in PBS at varying concentration in 96 round bottom wells, then 225 μL of blood was added and plates incubated at 37° C. for 4 hours. Cells were stimulated with LPS (or PBS for controls) by adding 25 μL to the plates at a final concentration of 1 μg/mL and incubated at 37° C. for 18 hours. To collect plasma, plates were centrifuged at 2,000×g for 10 minutes and 100 μL of supernatant was transferred to a 96 well polypropylene plate that was sealed and stored at −80° C. Samples were assayed for cytokines using the Meso Scale Discovery (MSD) platform (described below). This same MSD platform was used to assess cytokines in the plasma collected directly from drug treated animals.
Cytokine Detection—An MSD U-Plex cytokine assay was developed following the MSD U-Plex protocol guide and included biotinylated capture antibodies against: bovine Interleukin (IL)-1β (Biorad), bovine IL-6 (R&D Systems) and bovine tumor necrosis factor (TNF)-α (R&D Systems). […] Assay calibrators (Kingfisher) were diluted to a concentration of […] in control lithium heparin plasma, followed by 4-fold serial dilutions into plasma. […] Antibodies were used at the following concentrations: anti-IL-1β at 1 μg/mL, anti-IL-6 at 1 μg/mL and anti-TNF-α at 0.5 μg/mL. Cytokines were quantified according to manufacturer's instructions using a chemiluminescent readout. In brief, 0.5 mL of all biotinylated antibodies were diluted to 10 μg/mL with Diluent 100 and paired to their respective linkers by adding 750 μL of supplied Linker solution and incubated for 30 minutes followed by addition of Stop solution for another 30 minutes. The linked antibodies were then diluted 10-fold into Stop solution. Plates were coated by adding 50 μL of antibody solutions per well and incubated covered and shaking for 1 hour at room temperature. Plates were washed three times with PBS/Tween20 prior to samples or standards being added at 30 μL per well and incubated as above. Plates were washed three times before detection antibodies were added along with 2% goat and rabbit serum to block and incubated same as above. Plates were washed a further three times before addition of 150 μL 2X Read buffer and read immediately on the SI6000 instrument (MSD). For soluble protein levels, a BCA protein kit (Thermofisher) was used. The cytokine concentrations (pg/mL) were normalized to the total protein levels for each sample. [Bassel et. al., BMC Veterinary Research (2020) 16:168]
Therefore, a fresh whole bovine blood assay was developed with LPS as a stimulant (TLR-4 agonist) and with IL-1β and TNF-α as the read-out. Compounds of the invention were evaluated against a positive control for their ability to inhibit LPS-induced IL-1β and TNF-α as an overall evaluation of relative potency and modulation of target pathways.
TNFα is a cell signaling protein, cytokine, that plays a key role in both acute and chronic inflammation. In the bovine whole blood in vitro screening assay the inhibition of TNFα as induced by stimulation by lipopolysaccharide (LPS) and as measured by half the maximal inhibitory concentration (IC50) is recognized as the primary biomarker of immunomodulation potency upon pretreatment with the compounds of the invention. IL-1 B is a mediator of the inflammation response and is involved in a number of cellular activities including proliferation, differentiation and apoptosis. IL-1ß is also released upon cellular stress or cytotoxicity or upon TLR stimulation. […] In order to estimate a therapeutic index from the in vitro assay a differential between the TNFα IC50 (immunomodulation potency) versus the perceived cellular toxicity concentration (IL-1β release or overstimulation) was utilized.
As for `CC[C@H]1OC(=O)[C@H](C)[C@@H](O)[C@H](C)[C@@H](O[C@H]2O[C@@H](C)C[C@@H](N(C)S(=O)(=O)Nc3ccccc3)[C@@H]2Oc2ccc(F)cc2)[C@](C)(O)C[C@@H](C)CN[C@H](C)[C@@H](O)[C@]1(C)O` [Example A-37], the IC50 turned out to be 19 µM.
Regarding `CC[C@H]1OC(=O)[C@H](C)[C@@H](O[C@H]2C[C@@](C)(OC)[C@](O)(CNC3CCCC3)[C@H](C)O2)[C@H](C)[C@@H](O[C@@H]2O[C@H](C)C[C@H](N(C)S(=O)(=O)c3ccc(Cl)cc3)[C@H]2O)[C@](C)(O)C[C@@H](C)CN[C@H](C)[C@@H](O)[C@]1(C)O` [Example B-22], half-maximal inhibition (IC50) was put at 9 µM.
Compound `CC[C@H]1OC(=O)[C@H](C)[C@@H](O[C@H]2C[C@@](C)(OC)[C@](O)(CNCC3CC3)[C@H](C)O2)[C@H](C)[C@@H](O[C@@H]2O[C@H](C)C[C@H](N(C)S(=O)(=O)c3ccc(Cl)cc3)[C@H]2O)[C@](C)(O)C[C@@H](C)CN[C@H](C)[C@@H](O)[C@]1(C)O` [Example B-24] showed an IC50 of 10 µM.
`CC[C@H]1OC(=O)[C@H](C)[C@@H](O[C@H]2C[C@@](C)(OC)[C@](O)(CNc3ccccc3)[C@H](C)O2)[C@H](C)[C@@H](O[C@@H]2O[C@H](C)C[C@H](N(C)S(=O)(=O)c3ccc(Cl)cc3)[C@H]2O)[C@](C)(O)C[C@@H](C)CN[C@H](C)[C@@H](O)[C@]1(C)O` [Example B-32] had an IC50 of 23 µM.
As to `CC[C@H]1OC(=O)[C@H](C)[C@@H](O[C@H]2C[C@@](C)(OC)[C@](O)(CNc3ccccc3)[C@H](C)O2)[C@H](C)[C@@H](O[C@@H]2O[C@H](C)C[C@H](N(C)S(=O)(=O)Nc3ccc(C(F)(F)F)cc3)[C@H]2O)[C@](C)(O)C[C@@H](C)CN[C@H](C)[C@@H](O)[C@]1(C)O` [Example B-64], the IC50 was found to be 8 µM.
Same read-out and setting: for `CC[C@H]1OC(=O)[C@H](C)[C@@H](O[C@H]2C[C@@](C)(OC)[C@](O)(CNCCC3CCOCC3)[C@H](C)O2)[C@H](C)[C@@H](O[C@@H]2O[C@H](C)C[C@H](N(C)S(=O)(=O)Nc3ccc(C(F)(F)F)cc3)[C@H]2O)[C@](C)(O)C[C@@H](C)CN[C@H](C)[C@@H](O)[C@]1(C)O` [Example B-66] the value was 30 µM; for `CC[C@H]1OC(=O)[C@H](C)[C@@H](O[C@H]2C[C@@](C)(OC)[C@](O)(CNCCCOC)[C@H](C)O2)[C@H](C)[C@@H](O[C@@H]2O[C@H](C)C[C@H](N(C)S(=O)(=O)Nc3ccc(C(F)(F)F)cc3)[C@H]2O)[C@](C)(O)C[C@@H](C)CN[C@H](C)[C@@H](O)[C@]1(C)O` [Example B-78], 21 µM; for `CCOCCNC[C@]1(O)[C@H](C)O[C@@H](O[C@H]2[C@H](C)[C@@H](O[C@@H]3O[C@H](C)C[C@H](N(C)S(=O)(=O)Nc4ccc(C(F)(F)F)cc4)[C@H]3O)[C@](C)(O)C[C@@H](C)CN[C@H](C)[C@@H](O)[C@](C)(O)[C@@H](CC)OC(=O)[C@@H]2C)C[C@@]1(C)OC` [Example B-83], 30 µM.
As to `CC[C@H]1OC(=O)[C@H](C)[C@@H](O[C@H]2C[C@@](C)(OC)[C@](O)(CNCCOC)[C@H](C)O2)[C@H](C)[C@@H](O[C@@H]2O[C@H](C)C[C@H](N(C)S(=O)(=O)Nc3ccc(C(F)(F)F)cc3)[C@H]2O)[C@](C)(O)C[C@@H](C)CN[C@H](C)[C@@H](O)[C@]1(C)O` [Example B-84], half-maximal inhibition (IC50) was put at 51 µM.
Compound `CC[C@H]1OC(=O)[C@H](C)[C@@H](O[C@H]2C[C@@](C)(OC)[C@](O)(CN3CCc4ccccc4C3)[C@H](C)O2)[C@H](C)[C@@H](O[C@@H]2O[C@H](C)C[C@H](N(C)S(=O)(=O)c3ccc(Cl)cc3)[C@H]2O)[C@](C)(O)C[C@@H](C)CN[C@H](C)[C@@H](O)[C@]1(C)O` [Example C-10] gave an IC50 of 23 µM.
Compound `CC[C@H]1OC(=O)[C@H](C)[C@@H](O[C@H]2C[C@@](C)(OC)[C@](O)(CN3CCCCC3)[C@H](C)O2)[C@H](C)[C@@H](O[C@@H]2O[C@H](C)C[C@H](N(C)S(=O)(=O)Nc3ccc(Br)cc3)[C@H]2O)[C@](C)(O)C[C@@H](C)CN[C@H](C)[C@@H](O)[C@]1(C)O` [Example C-29] displayed an IC50 of 14 µM.
The same measure, in the same setting: for `CC[C@H]1OC(=O)[C@H](C)[C@@H](O[C@H]2C[C@@](C)(OC)[C@](O)(CN3CCCCC3)[C@H](C)O2)[C@H](C)[C@@H](O[C@@H]2O[C@H](C)C[C@H](N(C)S(=O)(=O)Nc3ccc(I)cc3)[C@H]2O)[C@](C)(O)C[C@@H](C)CN[C@H](C)[C@@H](O)[C@]1(C)O` [Example C-30] the value was 9 µM; for `CC[C@H]1OC(=O)[C@H](C)[C@@H](O[C@H]2C[C@@](C)(OC)[C@](O)(CN3CCCCC3)[C@H](C)O2)[C@H](C)[C@@H](O[C@@H]2O[C@H](C)C[C@H](N(C)S(=O)(=O)Nc3ccc(Cl)c(C(F)(F)F)c3)[C@H]2O)[C@](C)(O)C[C@@H](C)CN[C@H](C)[C@@H](O)[C@]1(C)O` [Example C-31], 8 µM; for `CC[C@H]1OC(=O)[C@H](C)[C@@H](O[C@H]2C[C@@](C)(OC)[C@](O)(CN3CCCCC3)[C@H](C)O2)[C@H](C)[C@@H](O[C@@H]2O[C@H](C)C[C@H](N(C)S(=O)(=O)Nc3ccccc3)[C@H]2Oc2ccc(F)cc2)[C@](C)(O)C[C@@H](C)CN[C@H](C)[C@@H](O)[C@]1(C)O` [Example C-51], 9 µM.
The compound `CC[C@H]1OC(=O)[C@H](C)[C@@H](O[C@H]2C[C@@](C)(OC)[C@](O)(CN3CCCCC3)[C@H](C)O2)[C@H](C)[C@@H](O[C@@H]2O[C@H](C)C[C@H](N(C)S(=O)(=O)Nc3ccccc3)[C@H]2Oc2ccccc2)[C@](C)(O)C[C@@H](C)CN[C@H](C)[C@@H](O)[C@]1(C)O` [Example C-52] had an IC50 of 15 µM.
